Experimental data taken from patent US11667636B2, “Modulators of Mas-related G-protein receptor X2 and related products and methods” (Escient Pharmaceuticals, Inc., priority 2020, dated 2023).

How the values were obtained:
[1] = tested on: Human LAD2 cells; experiment: Mast Cell Beta-Hexosaminidase Release Assay (Cortistatin-14 induced degranulation); format: cell-based; details: 500 nM Cortistatin-14, percent beta-hexosaminidase release, read-out: MRGPRX2 Antagonist Activity
Procedure: Human LAD2 cells (NIH) were maintained in an incubator at 37° C. with 5% CO2 and cultured in StemPro-34 serum-free media (Gibco 10639011) supplemented with 2 mM L-glutamine, 100 U/ml penicillin, […] streptomycin and 100 ng/ml SCF (Invitrogen PEP0860), at a concentration of 2-5×10^5 cells/mL, with hemidepletion every 1-2 weeks.
Cells were transferred to SCF-Free medium at 2.5×10^5 cells/mL and kept in an incubator overnight. On the day of the assay, cells were washed twice in Assay Buffer (final concentrations 10 mM HEPES, 137 mM NaCl, 5.6 mM D-glucose, 2.7 mM KCl, 1 mM MgCl, 1.8 mM CalCl2, 0.4 mM Na2HPO4.7H2O, 0.04% BSA, pH=7.4) and plated in a 96-well v-bottom plate at 20,000 cells per well in 80 μL Assay Buffer. Antagonist compounds solubilized at 10 mM in DMSO were diluted in Assay Buffer to 10× final desired concentrations as a 10-point curve (10 μM final top concentration with 1:3 serial dilutions) and 10 μL added per well. Plates were then incubated for 1 hour at 37° C. Agonists were diluted in Assay Buffer to 10× desired concentrations and 10 μL of the appropriate agonist added to each well. The final concentration of Cortistatin-14 (Tocris 3374) used in antagonist assays was 500 nM. Final concentrations of DMSO were kept consistent across the plate. Plates were then incubated in a warm air oven for 30 minutes at 37° C., followed by centrifugation at 4° C. for 5 minutes at 450×g. 50 μL supernatant from each well was then transferred to a 96-well flat bottom plate containing 100 μL substrate solution per well (3.5 mg/mL p-Nitrophenyl-N-acetyl-$-D-glucosaminide (Sigma 487052) in Citrate Buffer containing a final concentration of 40 mM Citric Acid, 20 mM Na2HPO4.7H2O, pH=4.5). To the cell pellets left in the remaining assay buffer, 150 μL 0.1% Triton-X-100 was then added to each well, resuspended by pipetting up and down, and 50 μL cell lysates transferred to a second 96-well flat bottom plate containing 100 μL substrate solution per well. Plates containing transferred supernatant and cell lysates were then incubated in a warm air oven for 90 minutes at 37° C. After incubation, 50 μL of 400 mM Glycine buffer (pH 10.7) was added into each well and the plate was read on a Molecular Devices SpectraMax iD5 plate reader (absorbance at 405 nm with reference filter at 620 nm). After background subtraction, the percentage degranulation (percent beta-hexosaminidase release) was calculated as 100×(supernatant values)/(supernatant+lysate values), followed by analysis using GraphPad Prism software to calculate an IC50 value for each compound.
The activity ranges are denoted as follows: “+++++” denotes antagonist activity <50 nM; “++++” denotes antagonist activity between 51 and 100 nM; “+++” denotes activity between 101 and 500 nM; “++” denotes activity between 501 and 1000 nM; and “+” denotes activity >1000 nM.

[2] = target: T1, human MRGPRX2 (Homo sapiens, UniProt Q96LB1); experiment: MRGPRX2 Activity: IP-One HTRF antagonist assay in CHO cells stably expressing human MRGPRX2, versus Cortistatin-14; format: cell-based; details: versus 0.3 uM Cortistatin-14 agonist, IP-1 HTRF, read-out: MRGPR2 Antagonist Activity
T1 construct: expressed in transfected cells
T1 sequence (Q96LB1 1-330): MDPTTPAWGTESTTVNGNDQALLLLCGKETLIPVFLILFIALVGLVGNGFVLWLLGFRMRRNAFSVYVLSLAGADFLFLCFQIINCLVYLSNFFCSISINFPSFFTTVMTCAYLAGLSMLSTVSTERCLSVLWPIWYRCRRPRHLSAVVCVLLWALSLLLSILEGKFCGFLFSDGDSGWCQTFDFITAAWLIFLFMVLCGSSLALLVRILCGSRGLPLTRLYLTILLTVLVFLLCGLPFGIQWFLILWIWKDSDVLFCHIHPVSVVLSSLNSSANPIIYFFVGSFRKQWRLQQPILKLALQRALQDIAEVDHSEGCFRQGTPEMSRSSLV
Procedure: CHO cells stably transfected to express human MRGPRX2 were maintained in an incubator at 37° C. with 5% CO2 and grown in F12 (HAM) media with 10% fetal bovine serum (FBS), 1% Glutamax, 1% penicillin/streptomycin, 800 μg/mL Geneticin (G418), and 300 μg/mL Hygromycin B. Cells were plated in a 384-well assay plate at 20,000 cells per well in 12 μL of Opti-MEM and kept in an incubator overnight. On the day of the assay, compounds solubilized at 10 mM in DMSO were added as a 10-point curve (30 uM final top concentration with 1:3 serial dilutions) using a Tecan D300E digital dispenser. Agonists were diluted in assay buffer (final concentrations of 5.7 mM Tris-HCl, 43 mM NaCl, 50 mM LiCl, pH=8) and 2 μL of the agonist Cortistatin-14 (CPC Scientific, catalog CORT-002) are added to each well. Final concentrations of agonists were 0.3 μM Cortistatin-14. Final concentrations of DMSO were kept consistent across the plate. Plates were incubated in the dark for 1 hr at 37° C. and then for 1 hr at room temperature. IP-1 standards and HTRF detection reagents were added according to the IP-One-Gq Kit purchased from Cisbio (part number 62IPAPEJ) and incubated in the dark for 1 hr at room temperature. The plate was read on a Molecular Devices SpectraMax iD5 plate reader. The HTRF ratio was calculated from the raw data and graphed using GraphPad Prism to calculate an IC50 value for each compound.
The activity ranges are denoted as follows: “+++++” denotes antagonist activity <50 nM; “++++” denotes antagonist activity between 51 and 100 nM; “+++” denotes activity between 101 and 500 nM; “++” denotes activity between 501 and 1000 nM; and “+” denotes activity >1000 nM

Structure (SMILES)	IC50 [1] [nM]	IC50 [2] [nM]
COc1ccc(C(=O)N[C@H]2CC[C@@H](Nc3cccc4nc(C(F)(F)F)cn34)CC2)cc1 [1-1]	< 50	< 50
CS(=O)(=O)Nc1cccc(C(=O)N[C@H]2CC[C@@H](Nc3cccc4sc(C(F)(F)F)cc34)CC2)c1 [2-6]	< 50	51 to 100
O=C(N[C@H]1CC[C@@H](Nc2cccc3nc(C(F)(F)F)cn23)CC1)c1cccc2cn[nH]c12 [2-10]	< 50	< 50
O=C(N[C@H]1CC[C@@H](Nc2cccc3nc(C(F)F)cn23)CC1)c1ccnc2[nH]ccc12 [2-24]	< 50	< 50
COc1ccc(C(=O)N[C@H]2CC[C@@H](Nc3cccc4nc(C(F)F)cn34)CC2)c(NCC(F)(F)F)c1 [2-28]	< 50	< 50
O=C(N[C@H]1CC[C@@H](Nc2cccc3nc(C(F)(F)F)cn23)CC1)c1cccc2cnsc12 [2-52]	< 50	–
O=C(N[C@H]1CC[C@@H](Nc2cccc3nc(C(F)F)cn23)CC1)c1ccc(NCC(F)F)cc1 [2-61]	< 50	–
CNc1ccccc1C(=O)N[C@H]1CC[C@@H](Nc2cccc3nc(C(F)(F)F)cn23)CC1 [2-71]	< 50	–
Cn1cc(C(=O)N[C@H]2CC[C@@H](Nc3cccc4nc(C(F)(F)F)cn34)CC2)c(Cl)n1 [2-137]	< 50	< 50
O=C(N[C@H]1CC[C@@H](Nc2cccc3nc(C(F)F)cn23)CC1)c1ccccc1NCC(F)F [2-142]	< 50	< 50
O=C(N[C@H]1CC[C@@H](Nc2cccc3nc(C(F)F)cn23)CC1)c1ccccc1NCC(F)(F)F [2-143]	< 50	< 50
O=C(N[C@H]1CC[C@@H](Nc2cccc3nc(C(F)(F)F)cn23)CC1)c1cccc2c(F)n[nH]c12 [2-153]	< 50	< 50
Cn1cc(C(=O)N[C@H]2CC[C@@H](Nc3cccc4nc(C(F)(F)F)cn34)CC2)c2ccccc21 [2-160]	< 50	< 50
O=C(N[C@H]1CC[C@@H](Nc2cccc3nc(C(F)(F)F)cn23)CC1)c1cccc(NCC(F)F)c1 [2-178]	< 50	< 50
O=C(N[C@H]1CC[C@@H](Nc2cccc3nc(C(F)F)cn23)CC1)c1ccccc1NCCF [2-222]	< 50	–
O=C(N[C@H]1CC[C@@H](Nc2cccc3nc(C(F)(F)F)cn23)CC1)c1cn(C(F)F)nc1C(F)F [2-228]	< 50	< 50
O=C(N[C@H]1CC[C@@H](Nc2cccc3sc(C(F)(F)F)cc23)CC1)c1ccc(F)cc1 [Example 1, 4-fluoro-N-((1s,4s)-4-((2-(trifluoromethyl)benzo[b]thiophen-4-yl)amino)cyclohexyl) benzamide]	< 50	101 to 500
Nc1nn(CC(F)(F)F)cc1C(=O)N[C@H]1CC[C@@H](Nc2cccc3nc(C(F)(F)F)cn23)CC1 [Example 7, 3-amino-1-(2,2,2-trifluoroethyl)-N-[4-[[2-(trifluoromethyl)imidazo[1,2-a]pyridin-5-yl]amino]cyclohexyl]pyrazole-4-carboxamide]	–	< 50
O=C(N[C@H]1CC[C@@H](Nc2cccc3nc(C(F)(F)F)cn23)CC1)c1cn(CC(F)F)nc1C(F)F [Example 8, 1-(2,2-difluoroethyl)-3-(difluoromethyl)-N-[4-[[2-(trifluoromethyl)imidazo[1,2-a]pyridin-5-yl]amino]cyclohexyl]pyrazole-4-carboxamide]	–	< 50
O=C(N[C@H]1CC[C@@H](Nc2cccc3nc(C(F)(F)F)cn23)CC1)c1cn(CC(F)(F)F)nc1C(F)F [Example 9, 3-(difluoromethyl)-1-(2,2,2-trifluoroethyl)-N-[4-[[2-(trifluoromethyl)imidazo[1,2-a]pyridin-5-yl]amino]cyclohexyl]pyrazole-4-carboxamide]	–	< 50
O=C(N[C@H]1CC[C@@H](Nc2cccc3nc(C(F)(F)F)cn23)CC1)c1cn(CC(F)F)nc1Cl [Example 11, 3-chloro-1-(2,2-difluoroethyl)-N-((1 s,4s)-4-((2-(trifluoromethyl)imidazo[1,2-a]pyridin-5-yl)amino)cyclohexyl)-1H-pyrazole-4-carboxamide]	–	< 50
O=C(N[C@H]1CC[C@@H](Nc2cccc3nc(C(F)(F)F)cn23)CC1)c1cn(CC(F)(F)F)nc1Cl [Example 12, 3-chloro-1-(2,2,2-trifluoroethyl)-N-((1s,4s)-4-((2-(trifluoromethyl)imidazo[1,2-a]pyridin-5-yl)amino)cyclohexyl)-1H-pyrazole-4-carboxamide]	–	< 50
